Data: paper PMC6199744, “Development of Chemical Proteomics for the Folateome and Analysis of the Kinetoplastid Folateome” (ACS Infectious Diseases, 2018)
Read-outs that look alike come from different tables or passages of the source.

Tests used:
Type in all cases: binding
[1] = target: T1, HeLa cell extract proteins (Homo sapiens, UniProt Q9GZT8)
T1 construct: endogenous in cells; host or cells: HeLa cell extract
T1 sequence (Q9GZT8 1-377): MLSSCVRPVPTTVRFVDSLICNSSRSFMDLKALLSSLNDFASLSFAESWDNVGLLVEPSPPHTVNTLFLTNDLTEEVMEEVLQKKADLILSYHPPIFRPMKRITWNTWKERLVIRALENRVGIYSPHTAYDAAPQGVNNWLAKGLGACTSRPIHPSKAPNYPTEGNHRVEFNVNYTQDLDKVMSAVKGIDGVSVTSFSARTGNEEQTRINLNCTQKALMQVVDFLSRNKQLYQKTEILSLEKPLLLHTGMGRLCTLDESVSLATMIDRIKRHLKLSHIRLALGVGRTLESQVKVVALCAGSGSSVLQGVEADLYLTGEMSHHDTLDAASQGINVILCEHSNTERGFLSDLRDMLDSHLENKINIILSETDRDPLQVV

[2] = target: T2, HeLa cell extract proteins (Homo sapiens, UniProt P62333)
T2 construct: endogenous in cells; host or cells: HeLa cell extract
T2 sequence (P62333 whole entry): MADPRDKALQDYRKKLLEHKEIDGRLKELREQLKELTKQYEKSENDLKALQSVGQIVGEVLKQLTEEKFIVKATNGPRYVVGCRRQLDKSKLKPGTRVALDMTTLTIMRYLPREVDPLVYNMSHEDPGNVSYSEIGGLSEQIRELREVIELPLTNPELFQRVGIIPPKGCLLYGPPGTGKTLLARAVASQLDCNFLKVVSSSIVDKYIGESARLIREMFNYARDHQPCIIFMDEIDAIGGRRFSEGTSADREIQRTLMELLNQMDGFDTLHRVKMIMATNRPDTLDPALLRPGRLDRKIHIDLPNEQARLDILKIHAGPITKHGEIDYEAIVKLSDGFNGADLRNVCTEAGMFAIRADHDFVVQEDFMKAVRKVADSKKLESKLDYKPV

[3] = target: T3, HeLa cell extract proteins (Homo sapiens, UniProt Q15645)
T3 construct: endogenous in cells; host or cells: HeLa cell extract
T3 sequence (Q15645 1-432): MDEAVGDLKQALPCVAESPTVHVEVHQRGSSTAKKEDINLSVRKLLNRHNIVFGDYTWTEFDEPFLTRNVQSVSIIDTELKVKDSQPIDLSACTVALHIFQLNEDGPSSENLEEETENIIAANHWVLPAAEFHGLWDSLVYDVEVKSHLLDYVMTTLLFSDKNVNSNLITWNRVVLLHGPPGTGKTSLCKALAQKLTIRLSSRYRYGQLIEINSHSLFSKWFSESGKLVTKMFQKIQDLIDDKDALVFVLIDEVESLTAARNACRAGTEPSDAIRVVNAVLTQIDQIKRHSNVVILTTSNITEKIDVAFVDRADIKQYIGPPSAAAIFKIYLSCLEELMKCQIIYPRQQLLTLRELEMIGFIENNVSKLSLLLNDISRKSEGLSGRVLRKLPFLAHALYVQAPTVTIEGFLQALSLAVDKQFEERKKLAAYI

[4] = target: T4, HeLa cell extract proteins (Homo sapiens, UniProt P07814)
T4 construct: endogenous in cells; host or cells: HeLa cell extract
T4 sequence (P07814 whole entry): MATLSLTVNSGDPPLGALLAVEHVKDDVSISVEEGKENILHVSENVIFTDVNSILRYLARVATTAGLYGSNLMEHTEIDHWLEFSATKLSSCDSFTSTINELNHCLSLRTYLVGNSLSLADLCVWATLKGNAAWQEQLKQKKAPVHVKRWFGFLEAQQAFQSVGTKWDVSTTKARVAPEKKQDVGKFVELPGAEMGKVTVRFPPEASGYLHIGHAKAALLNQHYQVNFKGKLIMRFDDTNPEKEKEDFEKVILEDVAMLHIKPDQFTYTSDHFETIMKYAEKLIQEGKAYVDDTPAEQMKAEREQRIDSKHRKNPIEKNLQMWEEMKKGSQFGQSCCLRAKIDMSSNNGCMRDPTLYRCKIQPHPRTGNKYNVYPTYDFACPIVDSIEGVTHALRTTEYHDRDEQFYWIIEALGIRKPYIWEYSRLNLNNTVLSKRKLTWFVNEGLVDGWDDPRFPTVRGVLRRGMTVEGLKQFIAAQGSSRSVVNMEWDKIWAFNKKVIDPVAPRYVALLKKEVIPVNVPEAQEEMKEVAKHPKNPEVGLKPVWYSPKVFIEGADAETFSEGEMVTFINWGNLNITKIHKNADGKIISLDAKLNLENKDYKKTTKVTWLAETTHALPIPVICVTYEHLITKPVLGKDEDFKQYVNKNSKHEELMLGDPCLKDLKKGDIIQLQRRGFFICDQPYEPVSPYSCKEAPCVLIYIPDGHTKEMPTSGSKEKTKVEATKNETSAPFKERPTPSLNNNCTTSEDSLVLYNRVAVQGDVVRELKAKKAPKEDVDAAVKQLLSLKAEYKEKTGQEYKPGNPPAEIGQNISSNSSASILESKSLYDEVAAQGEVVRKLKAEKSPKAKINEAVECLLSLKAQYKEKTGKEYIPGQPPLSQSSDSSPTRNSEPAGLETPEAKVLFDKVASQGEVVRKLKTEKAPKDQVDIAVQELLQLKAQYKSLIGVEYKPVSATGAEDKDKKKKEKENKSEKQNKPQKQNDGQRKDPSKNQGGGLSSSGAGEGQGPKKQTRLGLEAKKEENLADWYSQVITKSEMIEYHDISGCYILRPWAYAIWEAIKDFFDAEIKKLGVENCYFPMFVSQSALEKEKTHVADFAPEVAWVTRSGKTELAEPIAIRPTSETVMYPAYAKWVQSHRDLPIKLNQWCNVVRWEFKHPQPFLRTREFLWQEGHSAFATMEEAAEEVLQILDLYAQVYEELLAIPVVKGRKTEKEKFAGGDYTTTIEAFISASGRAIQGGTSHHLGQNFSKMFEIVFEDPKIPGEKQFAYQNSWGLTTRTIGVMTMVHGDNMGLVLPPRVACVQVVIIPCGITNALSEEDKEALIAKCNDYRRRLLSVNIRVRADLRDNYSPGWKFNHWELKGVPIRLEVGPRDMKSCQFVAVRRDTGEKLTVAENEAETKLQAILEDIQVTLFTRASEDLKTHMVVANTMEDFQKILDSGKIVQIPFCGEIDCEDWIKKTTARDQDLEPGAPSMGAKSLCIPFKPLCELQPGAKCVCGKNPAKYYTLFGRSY

[5] = target: T5, HeLa cell extract proteins (Homo sapiens, UniProt Q15120)
T5 construct: endogenous in cells; host or cells: HeLa cell extract
T5 sequence (Q15120 whole entry): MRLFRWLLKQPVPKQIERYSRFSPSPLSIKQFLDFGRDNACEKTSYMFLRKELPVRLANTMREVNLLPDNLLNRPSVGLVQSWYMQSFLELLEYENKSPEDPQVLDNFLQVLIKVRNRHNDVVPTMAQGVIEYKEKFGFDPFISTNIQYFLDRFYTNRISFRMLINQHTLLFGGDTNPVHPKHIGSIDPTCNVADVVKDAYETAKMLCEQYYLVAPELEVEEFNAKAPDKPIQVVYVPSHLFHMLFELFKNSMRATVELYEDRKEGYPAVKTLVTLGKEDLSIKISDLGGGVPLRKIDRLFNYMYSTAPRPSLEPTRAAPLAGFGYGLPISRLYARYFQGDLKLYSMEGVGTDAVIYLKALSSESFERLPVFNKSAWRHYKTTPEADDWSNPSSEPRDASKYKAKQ

[6] = target: T6, HeLa cell extract proteins (Homo sapiens, UniProt A3KMH1)
T6 construct: endogenous in cells; host or cells: HeLa cell extract
T6 sequence (A3KMH1 29-1905): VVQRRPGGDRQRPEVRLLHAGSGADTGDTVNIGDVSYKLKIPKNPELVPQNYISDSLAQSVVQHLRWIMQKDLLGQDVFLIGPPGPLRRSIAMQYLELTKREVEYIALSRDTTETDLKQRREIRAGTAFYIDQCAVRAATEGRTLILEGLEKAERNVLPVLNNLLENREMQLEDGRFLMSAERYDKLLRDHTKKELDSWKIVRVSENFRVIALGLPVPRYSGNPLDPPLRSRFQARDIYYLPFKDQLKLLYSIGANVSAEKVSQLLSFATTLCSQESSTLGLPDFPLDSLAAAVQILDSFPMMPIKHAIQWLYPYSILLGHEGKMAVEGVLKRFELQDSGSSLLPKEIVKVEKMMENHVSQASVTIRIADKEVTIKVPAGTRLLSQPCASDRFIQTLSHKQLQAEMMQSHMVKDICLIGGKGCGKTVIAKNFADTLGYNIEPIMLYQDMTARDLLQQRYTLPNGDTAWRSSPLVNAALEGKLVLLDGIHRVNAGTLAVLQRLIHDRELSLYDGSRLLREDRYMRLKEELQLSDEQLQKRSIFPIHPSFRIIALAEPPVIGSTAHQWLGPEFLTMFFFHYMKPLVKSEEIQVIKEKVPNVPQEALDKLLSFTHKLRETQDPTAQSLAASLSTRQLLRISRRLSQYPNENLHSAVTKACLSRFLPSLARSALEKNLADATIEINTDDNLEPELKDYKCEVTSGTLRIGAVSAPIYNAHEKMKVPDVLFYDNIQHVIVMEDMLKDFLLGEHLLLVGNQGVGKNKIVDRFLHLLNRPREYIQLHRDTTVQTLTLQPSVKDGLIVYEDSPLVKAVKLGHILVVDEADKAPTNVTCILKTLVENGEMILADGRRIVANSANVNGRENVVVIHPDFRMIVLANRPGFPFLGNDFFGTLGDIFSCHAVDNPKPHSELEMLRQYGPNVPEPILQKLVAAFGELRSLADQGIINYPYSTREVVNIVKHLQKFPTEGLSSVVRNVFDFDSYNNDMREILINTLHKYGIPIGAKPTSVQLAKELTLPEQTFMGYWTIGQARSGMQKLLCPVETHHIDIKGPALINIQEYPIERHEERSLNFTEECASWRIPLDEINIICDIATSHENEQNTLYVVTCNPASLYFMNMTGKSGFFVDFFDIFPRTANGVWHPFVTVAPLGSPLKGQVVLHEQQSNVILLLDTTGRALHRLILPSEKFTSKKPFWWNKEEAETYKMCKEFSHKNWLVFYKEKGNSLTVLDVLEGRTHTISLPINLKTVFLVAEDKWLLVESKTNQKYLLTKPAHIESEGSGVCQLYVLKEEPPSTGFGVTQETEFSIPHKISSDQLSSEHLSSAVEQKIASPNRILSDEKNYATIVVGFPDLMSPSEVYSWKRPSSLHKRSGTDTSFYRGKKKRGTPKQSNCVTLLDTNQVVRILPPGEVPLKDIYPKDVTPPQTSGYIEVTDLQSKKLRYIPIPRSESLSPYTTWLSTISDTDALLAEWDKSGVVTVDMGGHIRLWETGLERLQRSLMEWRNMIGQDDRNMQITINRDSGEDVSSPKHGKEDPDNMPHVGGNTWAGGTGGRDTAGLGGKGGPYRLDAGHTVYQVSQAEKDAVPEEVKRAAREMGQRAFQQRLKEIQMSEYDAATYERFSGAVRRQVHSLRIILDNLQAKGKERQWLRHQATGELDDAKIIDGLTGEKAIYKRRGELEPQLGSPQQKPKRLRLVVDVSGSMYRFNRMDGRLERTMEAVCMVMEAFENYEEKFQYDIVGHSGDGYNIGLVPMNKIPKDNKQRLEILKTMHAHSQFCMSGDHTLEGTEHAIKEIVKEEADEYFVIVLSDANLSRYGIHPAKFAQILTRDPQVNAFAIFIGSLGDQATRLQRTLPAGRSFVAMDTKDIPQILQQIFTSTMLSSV

[7] = target: T7, HeLa cell extract proteins (Homo sapiens, UniProt P00338)
T7 construct: endogenous in cells; host or cells: HeLa cell extract

[8] = target: T8, HeLa cell extract proteins (Homo sapiens, UniProt P61019)
T8 construct: endogenous in cells; host or cells: HeLa cell extract
T8 sequence (P61019 whole entry): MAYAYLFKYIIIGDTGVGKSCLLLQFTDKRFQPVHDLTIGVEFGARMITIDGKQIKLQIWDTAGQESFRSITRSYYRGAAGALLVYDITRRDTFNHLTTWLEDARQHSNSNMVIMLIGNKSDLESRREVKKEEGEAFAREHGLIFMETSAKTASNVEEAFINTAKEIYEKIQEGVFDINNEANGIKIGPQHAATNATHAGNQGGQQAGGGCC

[9] = target: T9, HeLa cell extract proteins (Homo sapiens, UniProt Q9HB71)
T9 construct: endogenous in cells; host or cells: HeLa cell extract
T9 sequence (Q9HB71 whole entry): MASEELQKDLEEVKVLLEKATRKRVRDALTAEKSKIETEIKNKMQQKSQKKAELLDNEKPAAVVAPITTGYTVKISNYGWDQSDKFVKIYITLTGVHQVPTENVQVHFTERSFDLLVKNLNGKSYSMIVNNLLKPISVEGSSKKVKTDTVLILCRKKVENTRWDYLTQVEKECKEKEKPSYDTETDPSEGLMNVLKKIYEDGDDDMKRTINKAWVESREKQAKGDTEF

[10] = target: T10, HeLa cell extract proteins (Homo sapiens, UniProt Q96PK6)
T10 construct: endogenous in cells; host or cells: HeLa cell extract
T10 sequence (Q96PK6 1-669): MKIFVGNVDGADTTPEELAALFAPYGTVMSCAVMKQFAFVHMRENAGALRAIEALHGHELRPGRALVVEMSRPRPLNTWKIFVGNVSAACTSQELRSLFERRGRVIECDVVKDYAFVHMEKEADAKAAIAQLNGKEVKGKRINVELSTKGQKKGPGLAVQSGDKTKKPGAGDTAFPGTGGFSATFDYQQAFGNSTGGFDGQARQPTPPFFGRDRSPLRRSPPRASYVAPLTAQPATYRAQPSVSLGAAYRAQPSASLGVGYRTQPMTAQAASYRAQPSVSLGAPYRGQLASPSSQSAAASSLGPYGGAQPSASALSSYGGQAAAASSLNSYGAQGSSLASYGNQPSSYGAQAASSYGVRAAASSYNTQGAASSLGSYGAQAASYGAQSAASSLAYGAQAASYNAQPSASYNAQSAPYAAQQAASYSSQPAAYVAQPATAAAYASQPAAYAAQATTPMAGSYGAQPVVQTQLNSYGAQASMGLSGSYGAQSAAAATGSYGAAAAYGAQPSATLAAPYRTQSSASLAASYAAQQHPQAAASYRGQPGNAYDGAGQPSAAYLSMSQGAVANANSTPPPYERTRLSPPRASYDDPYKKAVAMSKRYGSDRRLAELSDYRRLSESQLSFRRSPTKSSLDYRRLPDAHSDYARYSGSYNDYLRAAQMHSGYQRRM

[11] = target: T11, HeLa cell extract proteins (Homo sapiens, UniProt Q16881)
T11 construct: endogenous in cells; host or cells: HeLa cell extract
T11 sequence (Q16881 1-649): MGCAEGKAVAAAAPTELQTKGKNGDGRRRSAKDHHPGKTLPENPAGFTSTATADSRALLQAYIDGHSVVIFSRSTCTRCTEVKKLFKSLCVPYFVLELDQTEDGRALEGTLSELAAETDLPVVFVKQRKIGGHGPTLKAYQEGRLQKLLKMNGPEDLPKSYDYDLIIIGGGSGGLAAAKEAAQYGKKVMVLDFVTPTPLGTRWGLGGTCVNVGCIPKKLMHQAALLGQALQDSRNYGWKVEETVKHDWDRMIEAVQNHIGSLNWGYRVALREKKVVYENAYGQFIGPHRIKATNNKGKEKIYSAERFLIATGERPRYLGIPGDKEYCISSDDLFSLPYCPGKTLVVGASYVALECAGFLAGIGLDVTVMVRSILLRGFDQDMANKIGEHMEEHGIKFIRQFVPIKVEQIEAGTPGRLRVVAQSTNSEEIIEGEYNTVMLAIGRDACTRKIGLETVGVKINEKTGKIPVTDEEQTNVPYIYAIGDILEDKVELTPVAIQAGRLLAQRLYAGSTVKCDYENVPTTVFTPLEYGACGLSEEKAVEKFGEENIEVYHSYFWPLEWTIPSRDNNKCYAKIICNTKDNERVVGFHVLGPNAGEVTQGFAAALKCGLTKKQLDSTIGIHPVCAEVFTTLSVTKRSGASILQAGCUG

[12] = HeLa, protein EPRS (BI[…]-TRNA SYNTHETASE)
[13] = HeLa, protein CACYBP (ISOFORM 1 OF CALCYCLIN-BINDING PROTEIN)
[14] = HeLa, protein LDHA (ISOFORM 1 OF L-LACTATE DEHYDROGENASE A CHAIN.)

Structure (SMILES): Nc1nc2c(c(=O)[nH]1)N(C=O)C(CNc1ccc(C(=O)N[C@@H](CCC(=O)O)C(=O)O)cc1)CN2 (some centres unmarked) [LEU, leucovorin]
- fold changes relative to vehicle control ([1]; protein NIF3L1, HeLa): 0.95
- fold changes relative to vehicle control ([2]; protein PSMC6, HeLa): 0.84
- fold changes relative to vehicle control ([3]; HeLa, protein TRIP13): 0.92
- fold changes relative to vehicle control [4, 12]: 1.11
- fold changes relative to vehicle control ([5]; HeLa, protein PDK3): 0.93
- fold changes relative to vehicle control ([6]; HeLa, protein KIAA0564): 1
- fold changes relative to vehicle control ([7]; HeLa, protein LDHA): 1.07
- fold changes relative to vehicle control ([8]; HeLa, protein RAB2A): 0.85
- fold changes relative to vehicle control [9, 13]: 0.85
- fold changes relative to vehicle control ([10]; HeLa, captured protein RBM14): 0.92
- fold changes relative to vehicle control ([11]; HeLa, captured protein TXNRD1): 1.18

Structure (SMILES): Nc1nc2[nH]cc(CCc3ccc(C(=O)N[C@@H](CCC(=O)O)C(=O)O)cc3)c2c(=O)[nH]1 [PTX, pemetrexed]
- fold changes relative to vehicle control [1]: 0.9
- fold changes relative to vehicle control [2]: 0.92
- fold changes relative to vehicle control [3]: 0.88
- fold changes relative to vehicle control [4]: 1.06
- fold changes relative to vehicle control [5]: 0.9
- fold changes relative to vehicle control [6]: 0.99
- fold changes relative to vehicle control [7]: 1.15
- fold changes relative to vehicle control [8]: 0.93
- fold changes relative to vehicle control [9]: 1
- fold changes relative to vehicle control [10]: 0.99
- fold changes relative to vehicle control [11]: 1.16

Structure (SMILES): CCCCCCOc1ccc(Cc2cnc(N)nc2N)cc1 [compound 1]
- fold changes relative to vehicle control ([1]; captured protein NIF3L1, HeLa): 0.5
- fold changes relative to vehicle control ([2]; protein PSMC6, HeLa): 1.1
- fold changes relative to vehicle control ([3]; HeLa, protein TRIP13): 0.96
- fold changes relative to vehicle control ([4]; protein EPRS, HeLa): 1.06
- fold changes relative to vehicle control ([5]; captured protein PDK3, HeLa): 1
- fold changes relative to vehicle control ([6]; protein KIAA0564, HeLa): 0.99
- fold changes relative to vehicle control [7, 14]: 1.48 fold
- fold changes relative to vehicle control ([8]; captured protein RAB2A, HeLa): 0.64
- fold changes relative to vehicle control ([9]; protein CACYBP, HeLa): 1.12
- fold changes relative to vehicle control ([10]; captured protein RBM14, HeLa): 0.72
- fold changes relative to vehicle control ([11]; protein TXNRD1, HeLa): 1.27

Structure (SMILES): CCCCCCOc1cccc(Cc2cnc(N)nc2N)c1 [compound 2]
- fold changes relative to vehicle control ([1]; captured protein NIF3L1, HeLa): 0.97
- fold changes relative to vehicle control ([2]; protein PSMC6, HeLa): 1.57
- fold changes relative to vehicle control ([3]; HeLa, protein TRIP13): 1.17
- fold changes relative to vehicle control ([4]; protein EPRS, HeLa): 1.25
- fold changes relative to vehicle control ([5]; captured protein PDK3, HeLa): 0.49
- fold changes relative to vehicle control ([6]; protein KIAA0564, HeLa): 1.11
- fold changes relative to vehicle control [7, 14]: 2.61 fold
- fold changes relative to vehicle control ([8]; captured protein RAB2A, HeLa): 1.09
- fold changes relative to vehicle control ([9]; protein CACYBP, HeLa): 1.37
- fold changes relative to vehicle control ([10]; captured protein RBM14, HeLa): 1
- fold changes relative to vehicle control ([11]; protein TXNRD1, HeLa): 1.44

Structure (SMILES): Nc1nc2cccc(-c3ccccc3)c2n1Cc1ccc(Cl)c(Cl)c1 [compound 3]
- fold changes relative to vehicle control ([1]; captured protein NIF3L1, HeLa): 0.98
- fold changes relative to vehicle control ([2]; protein PSMC6, HeLa): 1.2
- fold changes relative to vehicle control ([3]; HeLa, protein TRIP13): 1.24
- fold changes relative to vehicle control ([4]; protein EPRS, HeLa): 1.13
- fold changes relative to vehicle control ([5]; captured protein PDK3, HeLa): 0.86
- fold changes relative to vehicle control ([6]; protein KIAA0564, HeLa): 1.1
- fold changes relative to vehicle control ([7]; HeLa, protein LDHA (ISOFORM 1 OF L-LACTATE DEH[…] CHAIN.)): 0.92 fold
- fold changes relative to vehicle control ([8]; captured protein RAB2A, HeLa): 0.83
- fold changes relative to vehicle control ([9]; protein CACYBP, HeLa): 0.93
- fold changes relative to vehicle control ([10]; captured protein RBM14, HeLa): 0.87
- fold changes relative to vehicle control ([11]; protein TXNRD1, HeLa): 1.05

Structure (SMILES): NCCOCCOCC(=O)Nc1nc2ncc(CNc3ccc(C(=O)NC(CCC(=O)O)C(=O)O)cc3)nc2c(=O)[nH]1 (centres unmarked) [compound 6]
- fold changes relative to vehicle control ([1]; protein NIF3L1, HeLa): 0.25
- fold changes relative to vehicle control ([2]; protein PSMC6, HeLa): 1.07
- fold changes relative to vehicle control ([3]; HeLa, protein TRIP13): 0.94
- fold changes relative to vehicle control [4, 12]: 1.19
- fold changes relative to vehicle control ([5]; HeLa, protein PDK3): 0.87
- fold changes relative to vehicle control ([6]; HeLa, protein KIAA0564): 1.1
- fold changes relative to vehicle control ([7]; HeLa, protein LDHA): 1.23
- fold changes relative to vehicle control ([8]; HeLa, protein RAB2A): 1.09
- fold changes relative to vehicle control [9, 13]: 1.16
- fold changes relative to vehicle control ([10]; HeLa, captured protein RBM14): 1.06
- fold changes relative to vehicle control ([11]; HeLa, captured protein TXNRD1): 1.16

Structure (SMILES): NCCCNc1ccc(C(=O)NC(CCC(=O)O)C(=O)O)cc1 (centres unmarked) [compound 7]
- fold changes relative to vehicle control ([1]; protein NIF3L1, HeLa): 0.94
- fold changes relative to vehicle control ([2]; protein PSMC6, HeLa): 0.96
- fold changes relative to vehicle control ([3]; HeLa, protein TRIP13): 1.09
- fold changes relative to vehicle control [4, 12]: 1.09
- fold changes relative to vehicle control ([5]; HeLa, protein PDK3): 0.99
- fold changes relative to vehicle control ([6]; HeLa, protein KIAA0564): 1.09
- fold changes relative to vehicle control ([7]; HeLa, protein LDHA): 0.95
- fold changes relative to vehicle control ([8]; HeLa, protein RAB2A): 0.94
- fold changes relative to vehicle control [9, 13]: 1.16
- fold changes relative to vehicle control ([10]; HeLa, captured protein RBM14): 1.1
- fold changes relative to vehicle control ([11]; HeLa, captured protein TXNRD1): 1.11
